The first experiment has as its target T1, glucocorticoid receptor (GR) (Homo sapiens, UniProt P04150).
T1 construct: endogenous in cells; host or cells: HeLa (ATCC) cell lysate supernatant
T1 sequence (P04150 1-777): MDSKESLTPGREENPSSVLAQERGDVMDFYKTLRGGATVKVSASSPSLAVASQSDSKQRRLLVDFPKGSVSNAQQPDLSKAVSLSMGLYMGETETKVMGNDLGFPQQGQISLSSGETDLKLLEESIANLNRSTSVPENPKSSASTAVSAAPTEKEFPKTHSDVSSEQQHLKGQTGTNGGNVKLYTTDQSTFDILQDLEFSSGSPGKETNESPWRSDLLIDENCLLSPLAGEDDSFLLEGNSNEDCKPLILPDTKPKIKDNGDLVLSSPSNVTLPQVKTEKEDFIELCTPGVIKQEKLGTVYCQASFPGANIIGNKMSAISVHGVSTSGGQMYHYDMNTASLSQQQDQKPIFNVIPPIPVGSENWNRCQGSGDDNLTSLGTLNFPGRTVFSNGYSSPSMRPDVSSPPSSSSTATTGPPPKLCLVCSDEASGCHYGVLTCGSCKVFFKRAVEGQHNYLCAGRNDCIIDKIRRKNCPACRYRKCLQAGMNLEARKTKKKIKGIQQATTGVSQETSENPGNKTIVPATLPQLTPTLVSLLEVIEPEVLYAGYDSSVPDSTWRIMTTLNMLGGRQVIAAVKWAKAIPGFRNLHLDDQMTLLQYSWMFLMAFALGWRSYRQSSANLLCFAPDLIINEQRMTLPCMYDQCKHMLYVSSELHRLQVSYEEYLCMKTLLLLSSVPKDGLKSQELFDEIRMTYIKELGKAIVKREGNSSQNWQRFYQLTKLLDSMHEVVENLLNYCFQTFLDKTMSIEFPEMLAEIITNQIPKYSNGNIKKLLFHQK
Kind of experiment: Ligand binding assay (GR BIND), 3H-dexamethasone displacement, HeLa cell lysate. Particulars: Table 1; HeLa cell lysate, 3H-DEX. As for the experimental part:
Binding Buffer: TEGM (10 mM Tris-HCl, 1 mM EDTA, 10% glycerol, 1 mM beta-mercaptoethanol, 10 mM Sodium Molybdate, pH 7.2)
50% HAP Slurry: Calbiochem Hydroxylapatite, Fast Flow, in 10 mM Tris, pH 8.0 and 1 mM EDTA.
Wash Buffer: 40 mM Tris, pH7.5, 100 mM KCl, 1 mM EDTA and 1 mM EGTA.
Dexmethasone-methyl-^3H, (DEX*); (Amersham cat# TRK645)
Dexamethasone (DEX) (Sigma, cat# D1756):
Phenol red-free Trypsin-EDTA is diluted in the same PBS 1:10. The cell layers are rinsed with 1× Trypsin, extra Trypsin is poured out, and the cell layers are incubated at 37° C. for ˜2 min. The flask is tapped and checked for signs of cell detachment. Once the cells begin to slide off the flask, the complete media is added. The cells are counted at this point, then diluted to the appropriate concentration and split into flasks or dishes for further culturing (Usually 1:3 to 1:6 dilution).
Preparation of Hela Cell Lysate
The cell pellet is washed twice with TEGM (10 mM Tris-HCl, 1 mM EDTA, 10% glycerol, 1 mM beta-mercaptoethanol, 10 mM Sodium Molybdate, pH 7.2). After the final wash, the cells are resuspended in TEGM at a concentration of 10^7 cells/mL. The cell suspension is snap frozen in liquid nitrogen or ethanol/dry ice bath and transferred to −80° C. freezer on dry ice. Before setting up the binding assay, the frozen samples are left on ice-water to just thaw (˜1 hr). Then the samples are centrifuged at 12,500 g to 20,000 g for 30 min at 4° C. The supernatant is used to set-up assay right away. If using 50 μL of supernatant, the test compound can be prepared in 50 μL of the TEGM buffer.
Procedure for Multiple Compound Screening
1×TEGM buffer is prepared, and the isotope-containing assay mixture is prepared in the following order: EtOH (2% final concentration in reaction), 3H-DEX (Amersham Biosciences) and 1×TEGM. [e.g. For 100 samples, 200 μL (100×2) of EtOH+4.25 μL of 1:10 ^3H-Dex stock+2300 μL (100×23) 1×TEGM]. The compound is serially diluted, e.g., if starting final conc. is 1 μM, and the compound is in 25 μL of solution, for duplicate samples, 75 μL of 4×1 μM solution is made and 3 μL of 100 μM is added to 72 μL of buffer, and 1:5 serial dilution.
25 μL of ^3H-DEX (6 nM) trace and 25 μL compound solution are first mixed together, followed by addition of 50 μL receptor solution. The reaction is gently mixed, spun briefly at about 200 rpm and incubated at 4° C. overnight. 100 μL of 50% HAP slurry is prepared and added to the incubated reaction which is then vortexed and incubated on ice for 5 to 10 minutes. The reaction mixture is vortexed twice more to resuspend HAP while incubating reaction. The samples in 96-well format are then washed in wash buffer using The FilterMate™ Universal Harvester plate washer (Packard). The washing process transfers HAP pellet containing ligand-bound expressed receptor to Unifilter-96 GF/B filter plate (Packard). The HAP pellet on the filter plate is incubated with 50 μL of MICROSCINT (Packard) scintillant for 30 minutes before being counted on the TopCount microscintillation counter (Packard). IC50s are calculated using DEX as a reference.
Turning to `C=CCNC(=O)c1c(F)cccc1CC[C@]1(O)CCC2=Cc3c(cnn3-c3ccc(F)cc3)C[C@@]21C` [Example 57, N-allyl-2-fluoro-6-{2-[(4αS,5R)-1-(4-fluorophenyl)-5-hydroxy-4α-methyl-1,4,4α,5,6,7-hexahydrocyclopenta[f]indazol-5-yl]ethyl}benzamide], the Ki came to 0.61 nM.

Take `CC(C)(C)NC(=O)c1c(F)cccc1CC[C@]1(O)CCC2=Cc3c(cnn3-c3ccc(F)cc3)C[C@@]21C` [Example 59, N-(tert-butyl)-2-fluoro-6-{2-[(4αS,5R)-1-(4-fluorophenyl)-5-hydroxy-4α-methyl-1,4,4α,5,6,7-hexahydrocyclopenta[f]indazol-5-yl]ethyl}benzamide]: the Ki was 1.83 nM.

With `CC(C)CNC(=O)c1c(F)cccc1CC[C@]1(O)CCC2=Cc3c(cnn3-c3ccc(F)cc3)C[C@@]21C` [Example 61, 2-fluoro-6-{2-[(4αS,5R)-1-(4-fluorophenyl)-5-hydroxy-4α-methyl-1,4,4α,5,6,7-hexahydrocyclopenta[f]indazol-5-yl]ethyl}-N-isobutylbenzamide], the Ki turned out to be 0.58 nM.

In turn, `CC(C)(C)NC(=O)c1ccccc1CC[C@]1(O)CCC2=Cc3c(cnn3-c3ccc(F)cc3)C[C@@]21C` [Example 62, N-(tert-butyl)-2-{2-[(4αS,5R)-1-(4-fluorophenyl)-5-hydroxy-4α-methyl-1,4,4α,5,6,7-hexahydrocyclopenta[f]indazol-5-yl]ethyl}benzamide] registered a Ki of 9.58 nM.

The compound `CC(C)S(=O)(=O)NCc1c(F)cccc1CC[C@]1(O)CCC2=Cc3c(cnn3-c3ccc(F)cc3)C[C@@]21C` [Example 83, N-(2-fluoro-6-{2-[(4αS,5R)-1-(4-fluorophenyl)-5-hydroxy-4α-methyl-1,4,4α,5,6,7-hexahydrocyclopenta[f]indazol-5-yl]ethyl}benzyl)propane-2-sulfonamide] showed a Ki of 0.56 nM.

For `CCS(=O)(=O)NCc1c(F)cccc1CC[C@]1(O)CCC2=Cc3c(cnn3-c3ccc(F)cc3)C[C@@]21C` [Example 84, N-(2-fluoro-6-{2-[(4αS,5R)-1-(4-fluorophenyl)-5-hydroxy-4α-methyl-1,4,4α,5,6,7-hexahydrocyclopenta[f]indazol-5-yl]ethyl}benzyl)ethanesulfonamide], the Ki worked out at 0.62 nM.

`C[C@]12Cc3cnn(-c4ccc(F)cc4)c3C=C1CC[C@@]2(O)CCc1cccc(F)c1CNS(=O)(=O)C(Cl)Cl` [Example 85, 1,1-dichloro-N-(2-fluoro-6-{2-[(4αS,5R)-1-(4-fluorophenyl)-5-hydroxy-4α-methyl-1,4,4α,5,6,7-hexahydrocyclopenta[f]indazol-5-yl]ethyl}benzyl)methanesulfonamide] came in with a Ki of 0.31 nM.

On to `C[C@]12Cc3cnn(-c4ccc(F)cc4)c3C=C1CC[C@@]2(O)CCc1cccc(F)c1CNS(=O)(=O)CC(F)(F)F` [Example 86, 2,2,2-trifluoro-N-(2-fluoro-6-{2-[(4αS,5R)-1-(4-fluorophenyl)-5-hydroxy-4α-methyl-1,4,4α,5,6,7-hexahydrocyclopenta[f]indazol-5-yl]ethyl}benzyl)ethanesulfonamide], for which the Ki worked out at 0.51 nM.

`C[C@]12Cc3cnn(-c4ccc(F)cc4)c3C=C1CC[C@@]2(O)CCc1cccc(F)c1CNS(=O)(=O)C1CC1` [Example 88, N-(2-fluoro-6-{2-[(4αS,5R)-1-(4-fluorophenyl)-5-hydroxy-4α-methyl-1,4,4α,5,6,7-hexahydrocyclopenta[f]indazol-5-yl]ethyl}benzyl)cyclopropanesulfonamide]: the Ki is 0.57 nM.

As for `CN(C)S(=O)(=O)NCc1c(F)cccc1CC[C@]1(O)CCC2=Cc3c(cnn3-c3ccc(F)cc3)C[C@@]21C` [Example 89, N′-(2-fluoro-6-{2-[(4αS,5R)-1-(4-fluorophenyl)-5-hydroxy-4α-methyl-1,4,4α,5,6,7-hexahydrocyclopenta[f]indazol-5-yl]ethyl}benzyl)-N,N-dimethylsulfamide], the Ki is 0.4 nM.

For `C[C@]12Cc3cnn(-c4ccc(F)cc4)c3C=C1CC[C@@]2(O)CCc1ccccc1C1(NS(=O)(=O)C2CC2)CC1` [Example 91, N-[1-(2-{2-[(4αS,5R)-1-(4-fluorophenyl)-5-hydroxy-4α-methyl-1,4,4α,5,6,7-hexahydrocyclopenta[f]indazol-5-yl]ethyl}phenyl)cyclopropyl]cyclopropanesulfonamide], the Ki was 0.26 nM.

As to `C[C@]12Cc3cnn(-c4ccc(F)cc4)c3C=C1CC[C@@]2(O)CCc1ccccc1CC(N)=O` [Example 107, 2-(2-{2-[(4αS,5R)-1-(4-fluorophenyl)-5-hydroxy-4α-methyl-1,4,4α,5,6,7-hexahydrocyclopenta[f]indazol-5-yl]ethyl}phenyl)acetamide], affinity was put at a Ki of 2.32 nM.

Regarding `CN(C)S(=O)(=O)Nc1c(F)cccc1CC[C@]1(O)CCC2=Cc3c(cnn3-c3ccc(F)cc3)C[C@@]21C` [Example 113, N′-(2-fluoro-6-{2-[(4αS,5R)-1-(4-fluorophenyl)-5-hydroxy-4α-methyl-1,4,4α,5,6,7-hexahydrocyclopenta[f]indazol-5-yl]ethyl}phenyl)-N,N-dimethylsulfamide], the affinity corresponds to a Ki of 2.66 nM.

Take `CCS(=O)(=O)Nc1ccccc1CC[C@]1(O)CCC2=Cc3c(cnn3-c3ccc(F)cc3)C[C@@]21C` [Example 114, N-(2-{2-[(4αS,5R)-1-(4-fluorophenyl)-5-hydroxy-4α-methyl-1,4,4α,5,6,7-hexahydrocyclopenta[f]indazol-5-yl]ethyl}phenyl)ethanesulfonamide]: the Ki was found to be 2.77 nM.

On to `CN(C)S(=O)(=O)c1ccccc1CC[C@]1(O)CCC2=Cc3c(cnn3-c3ccc(F)cc3)C[C@@]21C` [Example 138, 2-{2-[(4αS,5R)-1-(4-fluorophenyl)-5-hydroxy-4α-methyl-1,4,4α,5,6,7-hexahydrocyclopenta[f]indazol-5-yl]ethyl}-N,N-dimethylbenzenesulfonamide], for which the Ki came to 0.84 nM.

As for `CCS(=O)(=O)c1ccccc1CC[C@]1(O)CCC2=Cc3c(cnn3-c3ccc(F)cc3)C[C@@]21C` [Example 143, (4αS,5R)-5-{2-[2-(ethylsulfonyl)phenyl]ethyl}-1-(4-fluorophenyl)-4α-methyl-1,4,4α,5,6,7-hexahydrocyclopenta[f]indazol-5-ol], the Ki was found to be 1.44 nM.

Staying with this experiment, now noted: Table 2; prior-art comparison compounds.
As to `COc1ccccc1CC[C@]1(O)CCC2=Cc3c(cnn3-c3ccc(F)cc3)C[C@@]21C` [Example 58 WO 2004/075840 A2, reference compound], the affinity, expressed as Ki, was 0.28 nM.

The compound `C[C@]12Cc3cnn(-c4ccc(F)cc4)c3C=C1CC[C@@]2(O)CCc1ccccc1F` [Example 70 WO 2004/075840 A2, reference compound] registered a Ki of 2.95 nM.
